Measured values taken from patent US20230077704A1, “APPLICATION OF NITAZOXANIDE AND ACTIVE FORM THEREOF, TIZOXANIDE, IN TREATMENT OF SARS-COV-2 INFECTION” (priority 2020, published 2023).
“Also recorded” adds a separate entry of the source. Read-outs that look alike come from different tables or passages of the source.

What was measured:
[1] = test system: SARS-CoV-2 (2019-nCoV) virus; format: cell-based; conditions: for Copy number of virus genome: 100TCID50, 48 hours, supernatant
Vero-E6 cells = assay: Cytotoxicity test of drugs, CCK-8 kit; format: cell-based; conditions: 48 hours; for Cell viability (% of vehicle control): Vero-E6 cells
Protocol: The cytotoxicity test of drugs was carried out by using CCK-8 kit (Beyotime). Specific steps were as follows:
(1) 1×10^4 Vero-E6 cells (ATCC) were inoculated in a 96-well plate and cultured at 37° C. for 8 hours.
(2) The drug was diluted with DMSO to an appropriate concentration of mother solution, and then diluted with MEM (purchased from Gibco company, Catalog No. 10370021) medium containing 2% FBS (purchased from Gibco company, Catalog No. 16000044) to the same concentration as that for the drug treatment. The original medium in the 96-well plate was discarded, 100 μL of the drug-containing MEM medium was taken and added to the cells, and three replicate wells were set for each concentration. A vehicle control (adding DMSO and medium to cells in wells, without adding drug) and a blank control (adding DMSO and medium to the wells, without cells) were set up. After the drug was added, the cells were cultured at 37° C. for 48 hours.
(3) 20 μL of CCK-8 solution (Beyotime) was added to the well to be tested, mixed gently without generating bubbles, and cultured subsequently at 37° C. for 2 hours. OD450 was read on a microplate reader (purchased from Molecular Devices, model: SpectraMax M5), and the cell viability was calculated:
Cell viability (%)=(A(drug treatment group)−A(blank control))/(A(vehicle control)−A(blank control))×100%
Wherein, A was the reading of the microplate reader.

influenza = conditions: 600 mg twice daily for five days, adults and adolescents; cited from earlier work
rotavirus = conditions: clinical trials; cited from earlier work

**Q.** What does the source list for `CC(=O)Oc1ccccc1C(=O)Nc1ncc([N+](=O)[O-])s1` [nitazoxanide, 2-(acetyloxy)-N-(5-nitro-2-thiazolyl) benzamide]?
**A.** Copy number of virus genome ([1]; 0.14 μM, Vero E6 cells): 820470664.5; Copy number of virus genome ([1]; 0.41 μM, Vero E6 cells): 363337006; Copy number of virus genome ([1]; 1.23 μM, Vero E6 cells): 76022948.5; Copy number of virus genome ([1]; 3.70 μM, Vero E6 cells): 21027512.5; Copy number of virus genome ([1]; 11.11 μM, Vero E6 cells): 5389366.5; Copy number of virus genome ([1]; 33.33 μM, Vero E6 cells): 1424671.5; Copy number of virus genome ([1]; 100 μM, Vero E6 cells): 1220444.5; Viral RNA load in the cells ([1]; Vero E6 cells, 48 hours after infection by SARS-CoV-2, FIG. 1(a)): can reduce the viral RNA load; Inhibition of replication of SARS-CoV-2 virus genome in the infected supernatant ([1]; at concentrations of 100 μM, 33 μM, 11.1 μM and 3.7 μM): could effectively inhibit the replication; Cell viability (% of vehicle control) (Vero-E6 cells; 0.14 μM): 98.78 % of vehicle control; Cell viability (% of vehicle control) (Vero-E6 cells; 0.41 μM): 101.40 % of vehicle control; Cell viability (% of vehicle control) (Vero-E6 cells; 1.23 μM): 98.54 % of vehicle control; Cell viability (% of vehicle control) (Vero-E6 cells; 3.70 μM): 96.47 % of vehicle control; Cell viability (% of vehicle control) (Vero-E6 cells; 11.11 μM): 96.03 % of vehicle control; Cell viability (% of vehicle control) (Vero-E6 cells; 33.33 μM): 93.58 % of vehicle control; Cell viability (% of vehicle control) (Vero-E6 cells; 100 μM): 93.29 % of vehicle control; Toxic effect on the cells (cytotoxicity) (Vero-E6 cells; all test concentrations): no cytotoxicity was observed; also recorded: no toxic effect on the cells; Duration of common influenza (influenza): reduced the duration of common influenza; Treatment of diarrhea in children caused by rotavirus infection (rotavirus): can effectively treat diarrhea
